This note sets out measurements from article PMC5571287 (Antimicrobial Agents and Chemotherapy, 2017).

The subject of data set [1] is RSV A2. The experiment in a line: CPE assay, RSV A2 in HEp-2 cells (resazurin). Type of data set: cell-based, respiratory syncytial virus. Particulars: for IC50: read-out: RSV A2 IC50; for IC90: read-out: RSV A2 IC90.
Data set [2] concerns RSV B WST. The data set can be described thus: CPE assay, RSV B Washington in HEp-2 cells (resazurin). Type of data set: cell-based, respiratory syncytial virus.
For data set [3], the target named is minigenome construct comprising the L protein, M2-1, N, and P of RSV A2 (Human respiratory syncytial virus A, UniProt P28887). The experiment in a line: cell-based.
Chain of minigenome construct comprising the L protein, M2-1, N, and P of RSV A2 (P28887 whole entry): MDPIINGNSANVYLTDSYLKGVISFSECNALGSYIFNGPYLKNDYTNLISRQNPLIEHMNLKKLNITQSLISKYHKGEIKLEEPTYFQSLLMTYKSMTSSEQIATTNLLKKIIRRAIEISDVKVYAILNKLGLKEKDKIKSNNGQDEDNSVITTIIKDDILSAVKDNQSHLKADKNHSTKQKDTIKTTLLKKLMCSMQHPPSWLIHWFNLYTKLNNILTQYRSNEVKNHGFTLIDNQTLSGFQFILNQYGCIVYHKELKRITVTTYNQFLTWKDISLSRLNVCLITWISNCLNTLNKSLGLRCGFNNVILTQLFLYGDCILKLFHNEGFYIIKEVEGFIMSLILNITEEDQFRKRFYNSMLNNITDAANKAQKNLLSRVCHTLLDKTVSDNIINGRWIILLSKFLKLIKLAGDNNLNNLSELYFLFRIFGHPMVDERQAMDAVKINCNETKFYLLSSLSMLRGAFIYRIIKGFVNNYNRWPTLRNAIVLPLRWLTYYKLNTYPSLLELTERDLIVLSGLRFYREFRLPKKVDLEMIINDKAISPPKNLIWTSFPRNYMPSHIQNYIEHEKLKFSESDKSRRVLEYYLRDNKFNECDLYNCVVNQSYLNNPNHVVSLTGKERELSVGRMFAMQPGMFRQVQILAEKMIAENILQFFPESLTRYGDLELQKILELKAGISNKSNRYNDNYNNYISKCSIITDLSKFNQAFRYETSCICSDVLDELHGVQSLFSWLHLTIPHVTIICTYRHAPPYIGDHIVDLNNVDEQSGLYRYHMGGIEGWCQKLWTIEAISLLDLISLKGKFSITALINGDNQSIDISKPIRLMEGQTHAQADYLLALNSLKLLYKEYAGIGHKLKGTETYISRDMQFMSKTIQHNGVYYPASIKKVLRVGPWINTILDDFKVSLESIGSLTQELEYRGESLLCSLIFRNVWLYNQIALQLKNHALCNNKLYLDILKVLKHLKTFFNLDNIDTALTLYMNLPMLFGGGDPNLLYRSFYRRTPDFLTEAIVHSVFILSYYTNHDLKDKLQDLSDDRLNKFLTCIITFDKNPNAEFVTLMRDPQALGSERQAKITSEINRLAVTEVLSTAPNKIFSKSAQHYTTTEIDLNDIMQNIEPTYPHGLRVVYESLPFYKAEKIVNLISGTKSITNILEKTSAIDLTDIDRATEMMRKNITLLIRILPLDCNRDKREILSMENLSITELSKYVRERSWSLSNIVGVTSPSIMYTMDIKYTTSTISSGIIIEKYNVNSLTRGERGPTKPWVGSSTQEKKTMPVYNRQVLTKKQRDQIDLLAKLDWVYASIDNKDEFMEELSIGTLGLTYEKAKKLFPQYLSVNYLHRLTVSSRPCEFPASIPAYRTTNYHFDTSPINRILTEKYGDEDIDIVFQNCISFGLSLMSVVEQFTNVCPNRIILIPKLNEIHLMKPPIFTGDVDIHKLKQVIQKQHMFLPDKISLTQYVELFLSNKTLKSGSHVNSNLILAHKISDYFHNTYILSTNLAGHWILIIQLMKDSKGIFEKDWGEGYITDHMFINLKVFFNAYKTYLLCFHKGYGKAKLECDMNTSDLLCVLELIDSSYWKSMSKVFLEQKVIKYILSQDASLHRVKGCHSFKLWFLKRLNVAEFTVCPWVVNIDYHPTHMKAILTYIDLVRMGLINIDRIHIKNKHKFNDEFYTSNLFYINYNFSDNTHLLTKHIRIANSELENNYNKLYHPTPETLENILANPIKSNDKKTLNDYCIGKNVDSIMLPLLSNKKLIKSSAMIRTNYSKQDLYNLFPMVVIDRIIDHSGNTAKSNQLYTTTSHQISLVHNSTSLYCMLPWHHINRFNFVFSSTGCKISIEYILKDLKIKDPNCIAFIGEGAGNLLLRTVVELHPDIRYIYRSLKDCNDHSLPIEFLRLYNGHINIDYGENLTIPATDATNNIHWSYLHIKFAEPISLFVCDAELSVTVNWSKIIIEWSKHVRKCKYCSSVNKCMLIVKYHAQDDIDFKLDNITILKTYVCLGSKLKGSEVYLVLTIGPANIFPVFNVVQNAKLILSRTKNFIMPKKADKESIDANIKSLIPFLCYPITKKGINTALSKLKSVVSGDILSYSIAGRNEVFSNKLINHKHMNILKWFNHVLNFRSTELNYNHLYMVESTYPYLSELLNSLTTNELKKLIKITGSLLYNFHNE
Chain of minigenome construct comprising the L protein, M2-1, N, and P of RSV A2 (P03421 whole entry, further chain): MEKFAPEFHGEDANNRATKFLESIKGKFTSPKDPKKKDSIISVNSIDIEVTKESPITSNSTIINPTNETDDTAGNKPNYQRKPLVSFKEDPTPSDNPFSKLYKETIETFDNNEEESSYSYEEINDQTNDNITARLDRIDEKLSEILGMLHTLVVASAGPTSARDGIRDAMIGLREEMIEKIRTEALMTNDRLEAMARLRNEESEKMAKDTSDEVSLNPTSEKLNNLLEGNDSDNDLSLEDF
For data set [4], the system named is PC786 escape mutant (Y1631H) of RSV A2. Type of data set: cell-based, respiratory syncytial virus. The following applies: for IC50: read-out: PC786 escape mutant IC50, N=3, after 6th passage; for IC50 / IC90: CPE; for IC90: read-out: PC786 escape mutant IC90, N=3; for activity on CPE of the PC786 escape mutant, in words: vs wild type.
Data set [5] has as its system Wild type RSVA2 (vehicle control virus). The data set can be described thus: CPE assay, vehicle control (wild type) RSV A2 virus. Particulars: for IC50: read-out: Wild type RSVA2 IC50; for IC90: read-out: Wild type RSVA2 IC90.
Data set [6] has as its system RSV A 1997/12-35. The data set can be described thus: CPE 1, resazurin 384-well CPE assay in HEp-2. Type of data set: cell-based. The following applies: human respiratory syncytial virus. The procedure:
(§1) For known clinical strains (RSV A 1997/12-35, 2001/2-20, 200/3-4, and Memphis 37), a 384-well-format resazurin-based CPE assay was conducted.

Data set [7] has as its system RSV A 2000/3-4. The data set can be described thus: CPE 1, resazurin 384-well CPE assay in HEp-2. Type of data set: cell-based. The following applies: human respiratory syncytial virus. The procedure: as §1
In data set [8] the test system is RSV A 2001/2-20. The data set can be described thus: CPE 1, resazurin 384-well CPE assay in HEp-2. Particulars: human respiratory syncytial virus. Type of data set: cell-based. As for the experimental part: as §1
In data set [9] the test system is RSV A Memphis 37c. The experiment in a line: CPE 1, resazurin 384-well CPE assay in HEp-2. It is filed as cell-based. The following applies: human respiratory syncytial virus. The procedure:
as §1

In data set [10] the test system is RSV A 1998/3-2. The experiment in a line: CPE 2, neutral red 96-well CPE assay in HEp-2. It is filed as cell-based. The following applies: human respiratory syncytial virus. As for the experimental part:
(§2) For RSV A 2001/3-12, 1998/3-2, and USU⃥v1225, CPE was induced in HEp-2 cells for 7 days and the plates were then stained with neutral red dye for approximately 2 h. The intracellular incorporated dye was extracted in 50:50 Sorensen citrate buffer-ethanol and the absorbance read on a spectrophotometer. The optical density (OD) of test wells was converted to percentage of cell and virus controls. […] The virus inocula were ∼63 50% cell culture infectious doses (CCID50) per well for 2001/3-12, ∼40 CCID50/well for 1998/3-2, and ∼32 CCID50/well for USU\v1225. This assay was conducted in Utah State University (Logan, UT).

In data set [11] the test system is RSV A 2001/3-12. The experiment in a line: CPE 2, neutral red 96-well CPE assay in HEp-2. Particulars: human respiratory syncytial virus. It is filed as cell-based. The procedure:
as §2

For data set [12], the system named is RSV A USU\v1225. The experiment in a line: CPE 2, neutral red 96-well CPE assay in HEp-2. Particulars: human respiratory syncytial virus. Type of data set: cell-based. As for the experimental part: as §2
Data set [13] in a line: Cell viability in HEp-2 cells (resazurin). Particulars: human, HEp-2 cells.
Data set [14] has as its system RSV A2. The data set can be described thus: RSV F protein cell-based ELISA in BEAS-2B cells, washout / nonwashout. The following applies: human respiratory syncytial virus, read-out: IC50, F protein expressed on cell surfaces. As for the experimental part:
Approximately 72 h after BEAS-2B cells were seeded in 96-well plates (at 4 × 10^4/ml; 100 μl/well), the medium in the plates was removed and replaced with 200 μl of fresh LHC-8 medium. […] For nonwashout plates, the compounds and DMSO (1 μl/well) were applied immediately after infection. On day 3 postinfection, supernatant was aspirated and the cells were fixed with 4% formaldehyde (100 μl in PBS solution) for 20 min at room temperature (RT), washed three times with wash buffer (WB) (200 μl; PBS containing 0.05% Tween 20), and incubated with blocking buffer (100 μl; 5% bovine serum albumin [BSA] in wash buffer) for 1 h. […] Abcam plc, Cambridge, UK). After a washing, cells were incubated with a horseradish peroxidase (HRP)-conjugated anti-mouse IgG antibody (50 μl/well; 1:2,000, Abcam) for 1 h. Tetramethylbenzidine (TMB) substrate (50 μl) was then added after two washings with WB and one with PBS, and the reaction was stopped by the addition of aqueous sulfuric acid (2 N; 50 μl/well). The resultant signal was determined colorimetrically (OD at 450 nm [OD450] with a reference wavelength of 655 nm) in a microplate reader (Multiskan FC; Thermo Fisher Scientific). Cells were then washed, and 0.5% crystal violet solution ([…]) was applied for 30 min. […] The measured F protein signals (OD450 − OD655 readings) were corrected for cell number (OD595 readings) by dividing the OD450–655 by the OD595 readings.

The nature of data set [15]: in vitro. The following applies: human.
Data set [16] concerns RSV A2. The data set can be described thus: Time-of-addition assay and MOI dependency, CPE (methylene blue) in HEp-2. It is filed as cell-based. The following applies: human respiratory syncytial virus.
The mark [17] stands for this setting: CPE, HEp-2, n = 3, added with virus infection, ALS-8112 24 h prior.
Where [18] appears, read: human respiratory syncytial virus, HEp-2.
[19] abbreviates: human respiratory syncytial virus.

Read-outs that look alike come from different tables or passages of the source.

Consider `COc1ccc(CCNCCCN2C(=O)c3c(cc(N)c4[nH]c(-c5ccc(C)c([N+](=O)[O-])c5)nc34)C(C)(C)C2=O)cc1OC` [BI compound D], for which the IC50 in [1] (setting [17]) was found to be 57.6 ± 1.53 nM; in data set [2] (setting [17]), 47.8 ± 2.96 nM; in [3], 55.3 nM; in data set [4], 87.4 nM; in [5] (CPE, N=3, vehicle control virus), 11.9 nM. The IC90 in data set [1] (setting [17]) was over 333 nM; in data set [2] (setting [17]) it was over 1660 nM; in data set [3] it was 233 nM; in data set [4] it was 161 nM; in data set [5] (CPE, N=3), 79.9 nM. Further, the “activity on CPE of the PC786 escape mutant, in words” value in data set [4] was “slightly reduced”.

As to `Cc1ccc(CCCO)c(NCc2ccc3nc(NCCCN4CCOCC4)n(Cc4nc(C)ccc4O)c3c2)c1` [TMC35315], the results for the IC50 in data set [1] (setting [17]) and in data set [2] (setting [17]) were 0.78 ± 0.0093 nM and 0.85 ± 0.017 nM, respectively. For the same molecule, the figures for the IC90 in [1] (setting [17]) and in data set [2] (setting [17]) were 1.29 ± 0.015 nM and 2.63 ± 0.19 nM, respectively.

For the molecule `Nc1ccn([C@@H]2O[C@@](CO)(CCl)[C@@H](O)[C@H]2F)c(=O)n1` [ALS-8112, reference compound], the IC50 in data set [1] (setting [18]) was 455 ± 16 nM; in data set [2] (setting [18]), 647 ± 44.2 nM; in data set [6] it was 693 nM; in [7], 515 nM; in data set [8] it was 768 nM; in data set [9], 398 nM. Also, the figures for the IC50 in data set [10], in data set [11] and in data set [12] were 1500 nM, 3200 nM and 880 nM, respectively. For the same molecule, the IC90 in data set [1] (setting [18]) was 1130 nM; in data set [2] (setting [18]), 2130 nM; in data set [3] (luciferase, HEp-2, wild-type L protein), 831 nM. This molecule also came in with a CC50 in data set [13] of over 341000 nM.

For the molecule `NC(=O)c1ncn([C@@H]2O[C@H](CO)[C@@H](O)[C@H]2O)n1` [Ribavirin], the IC50 was over 16400 nM in data set [1] (setting [18]), 10300 nM in data set [2] (setting [18]), 253000 nM in data set [14] (2 h exposure then 24-h washout before inoculation) and 6000 nM in data set [14] (nonwashout (sustained presence of drug)). Moreover, the 90% effect concentration (IC90) in data set [1] (setting [18]) and in [2] (setting [18]) was over 16400 nM in each case. The CC50 in [15] amounted to 202000 nM.

For `Cc1cn2nc([C@@H]3CCCCN3C(=O)c3cc(Cl)ccc3NS(C)(=O)=O)cc2nc1N1CC[C@H](N)C1` [GS-5806, reference compound], the 50% inhibitory concentration (IC50) stood at 0.45 ± 0.018 nM in data set [1] (setting [18]); 0.17 ± 0.043 nM in data set [2] (setting [18]); 1.62 nM in data set [16] (HEp-2, 24 h, MOI 0.02, n = 3, read-out: IC50 at treatment time 24 h postinoculation); 2.05 nM in data set [16] (HEp-2, 24 h, MOI 0.1, n = 3, read-out: IC50 at treatment time 24 h postinoculation); 11.7 nM in data set [16] (HEp-2, 24 h, MOI 1.0, n = 3, read-out: IC50 at treatment time 24 h postinoculation); 6.46 nM in data set [16] (HEp-2, 48 h, read-out: IC50 at treatment time 48 h postinoculation, MOI 0.02, n = 3). Also, the IC50 in data set [16] (HEp-2, 48 h, read-out: IC50 at treatment time 48 h postinoculation, MOI 0.1, n = 3) is over 188 nM; in [16] (HEp-2, 48 h, read-out: IC50 at treatment time 48 h postinoculation, MOI 1.0, n = 3) it was over 188 nM; in data set [16] (HEp-2, 72 h, MOI 0.02, n = 3, read-out: IC50 at treatment time 72 h postinoculation) it was over 188 nM; in data set [16] (HEp-2, 72 h, MOI 0.1, n = 3, read-out: IC50 at treatment time 72 h postinoculation), over 188 nM; in data set [16] (HEp-2, 72 h, MOI 1.0, n = 3, read-out: IC50 at treatment time 72 h postinoculation), over 188 nM; in data set [16] (HEp-2, MOI 0.02, n = 3, CPE at 144 h, read-out: IC50 at treatment time 0 h postinoculation), 0.38 nM. In addition, the IC50 is 0.57 nM in [16] (HEp-2, MOI 0.1, n = 3, CPE at 144 h, read-out: IC50 at treatment time 0 h postinoculation); 1.05 nM in data set [16] (HEp-2, MOI 1.0, n = 3, CPE at 144 h, read-out: IC50 at treatment time 0 h postinoculation); under 0.188 nM in data set [4]; 0.0018 nM in data set [5] (setting [19]). In addition, the IC90 in [1] (setting [18]) is 0.93 ± 0.098 nM; in data set [2] (setting [18]), over 126 nM; in [4], under 0.188 nM; in [5] (setting [19]) it was 0.0048 nM. In addition, in data set [4], the “activity on CPE of the PC786 escape mutant, in words” value is listed as “remained susceptible”.
